The target of this test is T1, human lung fibroblast collagenase (Homo sapiens, UniProt P03956).
T1 construct: from culture supernatants from the human lung fibroblast cell line, WI-38; endogenous in cells; host or cells: WI-38 human lung fibroblast cell line (culture supernatant)
T1 sequence (P03956 100-469): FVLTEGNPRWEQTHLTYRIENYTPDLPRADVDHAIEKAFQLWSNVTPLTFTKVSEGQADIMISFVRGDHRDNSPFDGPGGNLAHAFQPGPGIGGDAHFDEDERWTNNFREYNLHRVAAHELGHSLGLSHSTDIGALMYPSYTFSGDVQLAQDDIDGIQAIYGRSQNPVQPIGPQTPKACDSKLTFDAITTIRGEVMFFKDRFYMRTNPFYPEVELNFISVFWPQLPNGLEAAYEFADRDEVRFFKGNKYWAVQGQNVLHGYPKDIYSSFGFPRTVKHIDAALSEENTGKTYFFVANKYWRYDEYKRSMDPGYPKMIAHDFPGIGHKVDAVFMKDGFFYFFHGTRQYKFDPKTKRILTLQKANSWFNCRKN
The test is described as follows: Collagenase inhibitor assay, human lung fibroblast collagenase (14C-collagen fibril degradation). The settings on record: collagenase from WI-38 culture supernatants. Format: biochemical. As to the method:
The test is performed essentially as in Cawston and Barrett, Anal. Biochem. 99, 340-345 (1979). Compounds for testing are dissolved in methanol and added to collagenase (purified from cultures of rabbit bone or from culture supernatants from the human lung fibroblast cell line, WI-38) in buffer. In order to ensure that thiol collagenase inhibitors remained unoxidised, β-mercaptoethanol may be incorporated in the methanol solvent and/or the diluent buffers. The minimal direct effect of β-mercaptoethanol on the degradation of collagen by human or rabbit collagenase is controlled for. After a 5-15 min pre-incubation at 37° C., the assay tubes are cooled to 4° C. and ^14 C-acetylated rat skin […] collagen is added. The assay tubes are incubated at 37° C. overnight. The ^14 C-collagen forms insoluble fibrils which are the substrate for the enzyme.
To terminate the assay, the assay tubes are spun at 12000 rpm for 15 min. Undigested ^14 C-collagen is pelleted, while digested ^14 C-collagen is found as soluble peptides in the supernatant. A sample of the supernatant is taken for liquid scintillation counting.
The activity of collagenase inhibitors (IC50 : 50% inhibitory concentration) is expressed as that concentration of compound that inhibits a known (standard) concentration of enzyme by 50%.

[1] abbreviates: * = +mercaptoethanol, read-out: IC50, Inhibition of human lung fibroblast collagenase, +mercaptoethanol.
The mark [2] stands for this setting: without mercaptoethanol, read-out: IC50, Inhibition of human lung fibroblast collagenase.

Read-outs that look alike come from different tables or passages of the source.

With “4-Chloro-2-mercapto-N-[2-(3-indolyl)-1-(S)-(methyl-aminocarbonyl)ethyl]-α-(2-methylpropyl)phenylpropanamide [Example 8]”, the IC50 – broadly, the concentration that inhibits the measured activity by half – came to 190 nM under setting [1] and 1500 nM under setting [2].
With `CNC(=O)[C@H](Cc1ccc(OC)cc1)NC(=O)C(Cc1ccc(Cl)cc1S)CC(C)C` (stereo partly drawn) [Example 5, 4-Chloro-2-mercapto-N-[2-(4-methoxyphenyl)-1-(S)-(methylaminocarbonyl)ethyl]-α-(2-methylpropyl)phenylpropanamide], the IC50 by setting is: under setting [1], 250 nM; under setting [2], 1800 nM.
